Data set [1] is described as follows: liver homogenate. The following applies: female Tac:NCr:Foxn1^nu/nu mice, 37° C., up to 60 min.
Data set [2] concerns EFO-27 cells. Nature of the data set: Internalization/efflux studies in EFO-27 cells. The data set is classed as cell-based, human. The method, then: (§1) Internalization/Efflux Studies: The internalization and efflux studies were carried out following the general procedure. Basically, ^177Lu-LHRH II or ^125I-LHRH II ([^125I-Tyr^8]BRU-2477) (75 uL, 3.0 μCi/mL) was added to the EFO-27 or PC-3 cells. The cells were incubated for 40 min at 37° C. The unbound radioactivity was washed off (4×). Following addition of fresh medium, the cells were further incubated for up to 2 h. At various time points (15, 30, 60 & 120 min) the distribution of radioactivity (membrane-bound, internalized, and efflux) was determined
The internalization and efflux of several Lu-177 labeled LHRH II analogs in EFO-27 cells have been investigated. Basically, following pre-incubation of cells with ^177Lu-LHRH II samples, the binding buffer containing the ^177Lu was replaced with fresh media without complex. The extent of initial internalization (T=0), the amount of radioactive material that remained internalized and the efflux at 0-120 min were determined. The results are shown in FIGS. 21a-f and 22a-c and in Table 25.

Data set [3] has as its system PC-3 (human prostate cancer) cells. Kind of data set: Internalization/efflux studies in PC-3 cells. The data set is classed as cell-based. The arrangement: Cell associated activity at 2 h % Efflux / Cell associated activity at 0 h % Memb / Cell associated activity at 2 h % Memb: concentration or dose not given beside the values. On the procedure:
as §1
To determine whether prostate cancer cells (PC-3) behave differently from EFO-27 cells, internalization and efflux studies were carried out with ^177Lu-BRU-2813 using both cell lines.

For data set [4], the system named is LHRH binding sites on human ovarian cancer cells (EFO-27).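 Also: Cell-associated radioactivity on confluent EFO-27 monolayers in 96-well plates, measured by microplate scintillation counting.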
The nature of data set [5]: In vitro metabolic stability in mouse liver homogenate at 37° C. The data set is classed as in vitro ADME. The method, then:
Livers from 10 female Tac:NCr:Foxn1^nu/nu mice were excised, rinsed with ice cold PBS (no Ca^++ or Mg^++) and weighed. The tissues were minced with scissors in Petri dishes on ice with Tris buffered saline (Pierce BupH™ Tris buffered saline packs, #28376; 25 mM Tris, 150 mM NaCl, pH 7.2). After mincing, the tissues were dounce homogenized, and the total volume adjusted with ice cold Tris buffer (4 mL for every gram of excised tissue). The homogenate was centrifuged at ˜4000×g for 10 min at 4° C. The supernatants were aliquoted into Eppendorf tubes on ice (200 and 100 μl volumes) and stored at −80° C. Kidney homogenates were similarly prepared. […] The mixture was centrifuged at 4° C. for 20 min at 20,000×g to precipitate the protein; 10 μL (˜7.6 μCi) of the supernatant was injected into the HPLC for the analysis. […] Peaks at these retention times were also observed in the in vivo plasma sample (FIG. 1). […] After 0 and 60 min, the sample was removed from the incubator, immediately cooled on ice and 2 μL of 10 mM EDTA and 0.2 mL of ice-cooled MeOH were added, mixing after each addition. The proteins in the sample were separated by centrifugation at 14,000 rpm for 20 min. The supernatant was harvested and, in the samples spiked with the ^177Lu-analog, the radioactivity was measured using a Capintec dose calibrator to determine recovery. The sample was then analyzed by HPLC. […] After 0 and 60 min, the sample was removed from the incubator, immediately cooled on ice and 2 μL of 10 mM EDTA and 0.24 mL of ice-cooled methanol was added, mixing after each addition. The proteins in the sample were separated by centrifugation at 14,000 rpm for 20 min. The supernatant was collected and analyzed by LC/MS as described earlier herein.

In data set [6] the target is LHRH binding sites on EFO-27 human ovarian cancer cells (human). Nature of the data set: competition with [125I-Tyr8]BRU-2477 on EFO-27 cells.
Data set [7] concerns the target LHRH receptor (LHRH binding sites) on EFO-27 human ovarian cancer cells (human). Nature of the data set: competition with [125I-Tyr8]BRU-2477 for binding to EFO-27 cells.
For data set [8] the target is unchanged. Kind of data set: competition with [125I-Tyr8]BRU-2477, EFO-27 cells.
[9] abbreviates: Table 19: analogs used in the stabilization studies.

Read-outs that look alike come from different tables or passages of the source. Non-standard residues stand in square brackets, D forms with d. Bpa = N[C@@H](Cc1ccc(C(=O)c2ccccc2)cc1)C(=O)O; d2Nal = N[C@H](Cc1ccc2ccccc2c1)C(=O)O; pGlu = O=C1CC[C@@H](C(=O)O)N1; DO3A10CM = not defined here; Bpa4 = non-natural residue; Ampt4 = not defined here; azaGly = NNC(=O)O

Take “DO3A10CM-Dnal2-Arg-Trp-Ser-His-Darg-Trp-Bpa4-Ψ(CH2N)Pro-azaGly-NH2”: in data set [1], the not cleaved is 100 ± 0 % remaining after 60 min; no metabolism was observed.
Regarding “DO3A10CM-Dnal2-Arg-Trp-Ser-His-Darg-Trp-Bpa4-Aze-azaGly-NH2”, the fragment found result in data set [1] was “lutetium complex of BRU-3064 (DO3A10CM-Dnal2-Arg-Trp-Ser-His-Darg-Trp-Bpa-OH)”.
Turning to “DO3A10CM-Dnal2-Arg-Trp-Ser-His-Darg-Trp-Bpa4-Pip-azaGly-NH2”, the fragment found result in data set [1] was “Lu-DO3A10CM-Dnal2-Arg-Trp-Ser-His-Darg-Trp-Bpa4-Pip-OH”.
In the case of “pGlu-His-Trp-Ser-His-Darg-Trp-Tyr-Ψ(CH2N)-Pro-azaGly-NH2”, the not cleaved in data set [1] is reported as 100 ± 0 % remaining after 60 min; no metabolism.
Same read-out and setting: the figure for “pGlu-His-Trp-Ser-His-Darg-Trp-Tyr-Ampc4-azaGly-NH2” is 100 ± 0 % remaining after 60 min; no metabolism.
As to `N=C(N)NCCC[C@H](NC(=O)[C@@H](Cc1ccc2ccccc2c1)NC(=O)CN1CCN(CC(=O)O)CCN(CC(=O)O)CCN(CC(=O)O)CC1)C(=O)N[C@@H](Cc1c[nH]c2ccccc12)C(=O)N[C@@H](CO)C(=O)N[C@@H](Cc1cnc[nH]1)C(=O)N[C@H](CCCNC(=N)N)C(=O)N[C@@H](Cc1c[nH]c2ccccc12)C(=O)N[C@@H](Cc1ccc(C(=O)c2ccccc2)cc1)C(=O)N1CCC[C@H]1C(=O)NNC(N)=O` [BRU-2813, DO3A10CM-Dnal2-Arg-Trp-Ser-His-Darg-Trp-Bpa-Pro-azaGly-NH2], the “Cell associated activity at 0 h % Efflux” value in data set [2] (0 h) was 8.8%; in data set [3] (0 h), 12.5%. The “Cell associated activity at 0 h % Intern” value came to 24.1% in data set [2] (0 h, internalized) and 26.2% in data set [3] (0 h, internalized). Further, the “Cell associated activity at 0 h % Memb” value was found to be 66.8% in data set [2] (0 h, membrane bound) and 61.9% in data set [3] (0 h, membrane bound). The “Cell associated activity at 2 h % Efflux” value in data set [2] (2 h) worked out at 75.3%; in data set [3] (2 h), 75.7%. Moreover, the “Cell associated activity at 2 h % Intern” value in data set [2] (2 h, internalized) came to 7.4%; in data set [3] (2 h, internalized), 7.5%. The “Cell associated activity at 2 h % Memb” value in data set [2] (2 h, membrane bound) is reported as 17.3%; in data set [3] (2 h, membrane bound), 16.8%. Also, the figures for the Bound % in data set [2] (of added) and in data set [3] (of added) were 19.10% and 19.26%, respectively. For the same molecule, the figures for the Bound in data set [2] (per well) and in data set [3] (per well) were 40.5 fmol and 44.3 fmol, respectively. Besides, the “more potency than the comparator analog” value in data set [4] (BRU-2813 vs BRU-2666, BRU-2964 vs BRU-2813) is on record as 30%. Moreover, the EC50 stood at 330 nM in data set [4] (EFO-27 cells, competition with [125I-Tyr8]BRU-2477, 90 min) and 420 nM in data set [4] (setting [9]).
For “DO3A10CM-Dnal2-Arg-Trp-Ser-His-Darg-Trp-Bpa4-Flp4-azaGly-NH2”, the fragment found entry in data set [1] was “lutetium complex of BRU-3064 (DO3A10CM-Dnal2-Arg-Trp-Ser-His-Darg-Trp-Bpa-OH)”.
Take “DO3A10CM-Dnal2-Arg-Trp-Ser-His-Darg-Trp-Bpa4-Ampt4-azaGly-NH2”: the not cleaved in data set [1] was 98.7 ± 0.1 % remaining after 60 min; no metabolism was observed.
On to `N=C(N)NCCC[C@H](NC(=O)[C@@H](Cc1ccc2ccccc2c1)NC(=O)CN1CCN(CC(=O)O)CCN(CC(=O)O)CCN(CC(=O)O)CC1)C(=O)N[C@@H](Cc1c[nH]c2ccccc12)C(=O)N[C@@H](CO)C(=O)N[C@@H](Cc1c[nH]cn1)C(=O)N[C@H](CCCNC(=N)N)C(=O)N[C@@H](Cc1c[nH]c2ccccc12)C(=O)N[C@@H](Cc1ccc(C(=O)c2ccccc2)cc1)C(=O)N1C[C@H](N)C[C@H]1C(=O)NNC(N)=O` [BRU-2995], for which the “metabolism in liver homogenate” value in data set [5] is recorded as “no metabolism was observed”. Besides, in data set [4] (setting [9]), the EC50 turned out to be 410 nM.
Turning to “DO3A10CM-Dnal2-Arg-Trp-Ser-His-Darg-Trp-Bpa4-Thz-azaGly-NH2”, the not cleaved in data set [1] is reported as 98.5 ± 0.2 % remaining after 60 min; no metabolism was observed.
Consider `N=C(N)NCCC[C@H](NC(=O)[C@@H](Cc1ccc2ccccc2c1)NC(=O)CN1CCN(CC(=O)O)CCN(CC(=O)O)CCN(CC(=O)O)CC1)C(=O)N[C@@H](Cc1c[nH]c2ccccc12)C(=O)N[C@@H](CO)C(=O)N[C@@H](Cc1c[nH]cn1)C(=O)N[C@H](CCCNC(=N)N)C(=O)N[C@@H](Cc1c[nH]c2ccccc12)C(=O)N[C@@H](Cc1ccc(C(=O)c2ccccc2)cc1)C(=O)N1CSC[C@H]1C(N)=O` [BRU-3072], for which, in data set [5] (37° C. for 60 min, Lu complexes of DO3A10CM peptides, unlabeled BRU-2477 derivatives), the “metabolism in liver homogenate” value was “no metabolism was observed”. For the same molecule, in data set [4] (BRU-2441 vs BRU-2439, BRU-2666 vs Sar1 analog, BRU-3072 vs Pro9 analog), the “times more potent than the comparator analog” value is about 2.5.
In the case of [pGlu]HWSH[dR]WYP[azaGly]-NH2 [BRU-2477], the EC50 in data set [6] turned out to be 740 nM; in data set [7], 840 nM.
As to XRWSHXW (as printed: DO3A10CM-Dnal2-Arg-Trp-Ser-His-Darg-Trp-OH) [BRU-3046], the EC50 in data set [7] was determined as 15800 nM.

B1: BRU-2996 (peptide)
peptide: XRWSHXWXXX
modifications: N-terminal DO3A10CM; Dnal2 at 1; Darg at 6; Bpa4 at 8; Pip at 9; azaGly-NH2 at 10
Turning to B1, the EC50 in data set [8], in data set [6] and in data set [7] was 350 nM throughout.

B2: BRU-2993 (peptide)
peptide: XRWSHXWXXX
modifications: N-terminal DO3A10CM; Dnal2 at 1; Darg at 6; Bpa4 at 8; Aze at 9; azaGly-NH2 at 10
With B2, the EC50 in data set [8], in data set [6] and in data set [7] was 380 nM in each case.
With [pGlu]HWSH[dR]WYP[azaGly]-NH2 (also: reduced amide bond Ψ(CH2N) between Tyr8 and Pro9) [BRU-3122], the EC50 in data set [7] came to 3130 nM.

B3: BRU-3081 (peptide)
peptide: XRWSHXWXPX
modifications: N-terminal DO3A10CM; Dnal2 at 1; Darg at 6; Bpa4-psi(CH2N)-Pro reduced amide isostere at 8-9; azaGly-NH2 at 10
In the case of B3, the EC50 in data set [8] and in data set [7] was 300 nM each time.

B4: BRU-3064 (peptide)
peptide: DO3A10CM-[d2Nal]RWSH[dR]W[Bpa4]-OH
modifications: reading uncertain; also: printed as DO3A10CM-Dnal2-Arg-Trp-Ser-His-Darg-Trp-Bpa4-OH
As for B4, in data set [7], the concentration for a half-maximal effect (EC50) came to 720 nM.

B5: BRU-2995 (peptide)
peptide: DO3A10CM-[d2Nal]RWSH[dR]W[Bpa][Ampt4][azaGly]-NH2
modifications: reading uncertain; also: printed as DO3A10CM-Dnal2-Arg-Trp-Ser-His-Darg-Trp-Bpa4-Ampt4-azaGly-NH2
Regarding B5, the 50% effective concentration (EC50) in data set [8], in data set [6] and in data set [7] was 410 nM in each case.

B6: BRU-3072 (peptide)
peptide: XRWSHXWXXX
modifications: N-terminal DO3A10CM; Dnal2 at 1; Darg at 6; Bpa4 at 8; Thz at 9; azaGly-NH2 at 10
Regarding B6, the EC50 in data set [8], in data set [6] and in data set [7] was 160 nM in each case. Besides, the fold improved binding against the Pro9 analog (BRU-2813) in data set [6] stood at 2.5 fold.

B7: BRU-2994 (peptide)
peptide: XRWSHXWXXX
modifications: N-terminal DO3A10CM; Dnal2 at 1; Darg at 6; Bpa4 at 8; Flp4 at 9; azaGly-NH2 at 10
Turning to B7, the EC50 in data set [8], in data set [6] and in data set [7] was 600 nM in each case.

For the origin of these results see patent publication US20120045393A1 (priority 2009, published 2012).
